{"source": "patent US20220110985A1", "about": "“NUTRITIONAL COMPOSITION COMPRISING 2'FUCOSYLLACTOSE AND 3'GALACTOSYLLACTOSE” (N.V. Nutricia, priority 2019, published 2022)", "type_in_all_cases": "cell-based", "key": {"[1]": {"tested_on": "human peripheral blood mononuclear cells (PBMCs)", "assay": "PBMC cell activity (WST-1)", "settings": "after 24 h; non-stimulated and CD3/CD28 stimulated conditions", "protocol": "(§1) Isolation of PBMC from healthy donors: Human peripheral blood mononuclear cells (PBMC) from healthy donors were isolated from buffy coats (Sanquin, Amsterdam, the Netherlands). PBMC were obtained by centrifugation using Leucosep tubes (Greiner Bio-One). PBMC were collected and washed in PBS (Gibco, Thermo Fisher Technologies)+2% heat-inactivated FCS (Invitrogen), followed by hypotonic lysis of erythrocytes with sterile lysis buffer (0.15 M NH4Cl, 0.01 M KHCO3 and 0.1 mM EDTA, pH of 7.4 at 4° C., all from Merck, Darmstadt, Germany). After lysis, the PBMC were resuspended in freezing medium (70% RPMI 1640 medium (Gibco, Thermo Fisher Technologies) supplemented with 10% heat-inactivated FCS and 100 U/ml penicillin-streptomycin, 20% heat-inactivated FCS and 10% DMSO (Sigma)) and cryopreserved.\n(§2) PBMC activation model: PBMC (0.2·10^6 cell/well) were cultured in 96-well flat bottom plates (Corning). For 24 hours the cells were pre-incubated with 2′-FL (Jennewein), 3′-GL (0-0.3% w/v; Carbosynth) or sodium butyrate (0.2 mM; Sigma Aldrich) and combinations thereof. Subsequently, the cells were CD3/CD28-activated (Pelicluster CD3 and Pelicluster CD28, Sanquin) for an additional 24 hours. After incubation, IFNγ was measured by ELISA in the supernatants (see below). To determine cell activity after stimulation, PBMC were incubated with cell proliferation reagent WST-1 (10 μl; Roche) and/or 10% Triton (5 μl; negative control). After 3 hours, absorbance was measured at OD450 nm and OD650 nm and cell activity was calculated according to manufacturer's instructions."}, "[2]": {"tested_on": "human PBMC, CD3/CD28 stimulated", "assay": "Cytokine production of CD3/CD28 stimulated PBMC", "settings": "for CCL17 levels, in words / levels of IL-4 and IL-13 as compared to control, in words: CD3/CD28 stimulated PBMC, pre-incubation; for Relative level of CCL17, Mean (s.e.) / Relative level of IL-4, Mean (s.e.) / Relative level of IL-13, Mean (s.e.): CD3/CD28 stimulated, 24 h pre-incubation, 0.2 wt % 2′-FL, 0.1 wt % 3′-GL, blanc = 1, observed", "protocol": "as §1, §2\nCytokine production of PBMC: PBMC were incubated with indicated reagents. After incubation, the supernatants were collected and IL2, IL6, IL10, IL13, IL21, TNFα, IFNγ, MIF, CCL1, CCL13, CCL17, CCL20, CCL22 and CXCL8-11 levels were measured by conducting a validated multiplex immunoassay based on Luminex technology (xMAP, Luminex Austin Tex. USA). Acquisition was conducted with the Biorad FlexMAP3D (Biorad laboratories, Hercules USA) in combination with xPONENT software version 4.2 (Luminex). Data was analyzed by 5-parametric curve fitting using Bio-Plex Manager software, version 6.1.1 (Biorad).\nAfter PBMC stimulation, cell culture supernatants were collected, after which cytokine responses were measured in order to test immune responsiveness of the cells. The levels of cytokines measured in stimulated conditions were corrected for the (low) levels of the cytokines measured in non-stimulated conditions. In addition, since each donor is reacting in its own efficiency onto the T cell stimulus, we calculated the individual index of cytokine response by dividing the intervention induced response by the basal stimulated response.\nSubsequently, in order to test the direct effect of specific compounds on PBMC activity, the cells were activated with CD3/CD28 for 24 hours after a pre-incubated for 24 h with either 2′-FL, 3′-GL and combinations thereof. In addition, since each donor is reacting in its own efficiency onto the T cell stimulus, the individual index of cytokine response was calculated by dividing the intervention induced response by the basal stimulated response (the blanc is set at 1). In this way the intervention within 10 different donors has been studied."}, "Bifidobacteria": {"tested_on": "Bifidobacteria", "assay": "Fecal slurry fermentation: total Bifidobacteria", "protocol": "Anaerobic fermentation of fecal slurry samples was tested in a BioLector Pro microfluidics mini multifermentor. Faecal slurry samples were collected from breast fed infants and from formula fed infants. These faecal slurry samples were processed by adding 0.6 grams feces in 40 ml Baby Reichardt V.6 medium+mucus+Ammonium sulfate+lactate and acetate. The resulting solutions were inserted to the BioLector Pro microfluidics mini multifermentor. The test legs were supplemented with 3-GL, 2′-FL, 3′-GL+2′-FL, and GOS/FOS. The control leg was supplemented with sterile water.\nA 32 well plate that can handle low pH was used. The wells of this plate were filled with fecal solution. 2.5% (w/v) of the different sterile carbohydrate solutions (3′-GL, 2′-FL, 2′-FL/3′-GL (2.0+0.5%). and Glucose were added to the fecal slurry according to a template.\nThe experiment was started, and pH setpoint was either 5.5 (facial inoculum from infant 1, vaginally born, breast fed) or pH 6.0 (Inoculum from infant 2, vaginally born, breast fed) with continuous pH regulation, and temperature 37° C., humidity 85%, OD control. At 4, 8 and 24 hours a sample is taken for CFU determination on TOS-propionate MUP agar (total Bifidobacteria), XLD agar for Salmonella enteriditis S29, and Simons citrate inositol agar for Klebsiella pneumonia K2 and for SCFA, D- and L Lactate and ammonia analysis. Fecal pellet was used for 16s DNA sequencing."}}, "data": [{"compound": "C[C@@H]1O[C@@H](O[C@H]2[C@H](O[C@H]3[C@H](O)[C@@H](O)C(O)O[C@@H]3CO)O[C@H](CO)[C@H](O)[C@@H]2O)[C@@H](O)[C@H](O)[C@@H]1O", "note": "(stereo partly drawn) [2′-FL, α-L-Fuc-(1→2)-β-D-Gal-(1→4)-D-Glc]", "values": [{"measurement": "Immune cell activity as measured by WST, in words", "setting": "[1]", "result": "significantly increased"}, {"measurement": "CCL17 levels, in words", "setting": "[2]", "result": "no significant effect"}, {"measurement": "levels of IL-4 and IL-13 as compared to control, in words", "setting": "[2]", "result": "had no effect"}, {"measurement": "Relative level of CCL17, Mean (s.e.)", "setting": "[2]", "result": "1.061 (0.117)"}, {"measurement": "Relative level of IL-4, Mean (s.e.)", "setting": "[2]", "result": "0.9887 (0.0517)"}, {"measurement": "Relative level of IL-13, Mean (s.e.)", "setting": "[2]", "result": "1.039 (0.080)"}, {"measurement": "Growth of bifidobacteria", "setting": "Bifidobacteria", "result": "Growth of bifidobacteria was observed"}]}, {"compound": "Gal (beta 1-3)-Gal (beta 1-4)-Glc [3′-GL]", "values": [{"measurement": "Immune cell activity as measured by WST, in words", "setting": "[1]", "result": "decrease in activation"}, {"measurement": "CCL17 levels, in words", "setting": "[2]", "result": "no significant effect"}, {"measurement": "levels of IL-4 and IL-13 as compared to control, in words", "setting": "[2]", "result": "a decrease was detected"}, {"measurement": "Relative level of CCL17, Mean (s.e.)", "setting": "[2]", "result": "0.6212 (0.0531)"}, {"measurement": "Relative level of IL-4, Mean (s.e.)", "setting": "[2]", "result": "0.5825 (0.0413)"}, {"measurement": "Relative level of IL-13, Mean (s.e.)", "setting": "[2]", "result": "0.5472 (0.0723)"}, {"measurement": "Growth of bifidobacteria", "setting": "Bifidobacteria", "result": "Growth of bifidobacteria was observed"}, {"measurement": "effect on bifidobacteria", "setting": "Bifidobacteria; inoculum of baby 2", "result": "highest"}]}]}
